Reference: patent publication US9668482B1, “Fused heterocyclic compound and pest control application thereof” (Sumitomo Chemical Company, Limited, priority 2014, dated 2017)

What was measured:
Format in all cases: in vivo
[1] = system: American cockroaches (Periplaneta americana); assay: Test Example 14: American cockroach, topical application, comparison with compound 112; conditions: 1.0 μL topical, 7 days after treatment
Experimental: The compound 112 (hereinafter, referred to as “compound 112”), described in Table 40 of WO 2013/018928 pamphlet, and the present compound 1 were dissolved in acetone and then the acetone solutions of the designated concentration were prepared.
(§1) A droplet (1.0 μL) of the solution was topically applied onto the ventral prothorax of each female American cockroaches (Periplaneta americana). Then, the treated individuals were transferred to a clean polyethylene cup (bottom diameter: 12 cm, height: 10 cm) with some food and water. Each treatment consisted of 2 replications of 5 roaches/polyethylene cup. The mortality was determined on 7 days after treatment at 25° C. Mortality of insects (%)=(Number of dead insects/Number of tested insects)×100

[2] = system: American cockroaches (Periplaneta americana); assay: Test Example 13: American cockroach, topical application of 10% w/v acetone solution; conditions: 1.0 μL topical on ventral prothorax, females, 7 days, 25° C.
Experimental: The present compounds 1 and 2 were dissolved in acetone and then the 10% w/v acetone solutions were prepared.
as §1, with “cockroaches/polyethylene” for “roaches/polyethylene”

[3] = system: housefly (Musca domestica); assay: Test Example 8: housefly, treated filter paper with sucrose bait; conditions: 500 ppm, 0.7 mL on filter paper, female adults, after 24 hours
Experimental: Each of the present compounds 1 to 3, 5, 7, 8, 11, 13 to 16, 21 and 22 was made to a formulation according to the Formulation example 5 and was then diluted with water so that the active ingredient concentration was set to 500 ppm to prepare the diluted solution. The bottom of the polyethylene cup having 5.5 cm diameter was matted with the same size of a filter paper, and 0.7 mL of the diluted solution was added dropwise to the filter paper and 30 mg sucrose as bait was placed in the cup uniformly. Ten (10) heads of female adult housefly (Musca domestica) were released into the polyethylene cup and the cup was covered with the lid. After 24 hours, the life and death of housefly was examined and the number of died insects was counted and the mortality of insects was calculated by the following equation. Mortality of insects (%)=(Number of dead insects/Number of tested insects)×100

[4] = system: German cockroach (Blattella germanica); assay: Test Example 9: German cockroach, treated filter paper with sucrose bait; conditions: 500 ppm, 0.7 mL on filter paper, male adults, after 6 days
Experimental: Each of the present compounds 1 to 3, 5, 7, and 13 was made to a formulation according to the Formulation example 5 and was then diluted with water so that the active ingredient concentration was set to 500 ppm to prepare the diluted solution. The bottom of the polyethylene cup having 5.5 cm diameter was matted with the same size of a filter paper, and 0.7 mL of the diluted solution was added dropwise to the filter paper and 30 mg sucrose as bait was placed in the cup uniformly. Two (2) heads of male adult German cockroach (Blattella germanica) were released into the polyethylene cup and the cup was covered with the lid. After 6 days, the life and death of German cockroach was examined and the number of died insects was counted and the mortality of insects was calculated by the following equation. Mortality of insects (%)=(Number of dead insects/Number of tested insects)×100

| SMILES | Mortality of insects [3] [%] | Mortality of insects [4] [%] | also measured |
| --- | --- | --- | --- |
| CCS(=O)(=O)c1cc(-c2ncccn2)cnc1-c1nc2cc(C(F)(F)F)cnc2n1C [Compound 112] |  |  | Morality (%) ([1]; concentration 2 w/v%): 70%; Morality (%) ([1]; concentration 4 w/v%): 100% |
| CCS(=O)(=O)c1ccc(-n2cnc(Cl)n2)nc1-c1nc2cc(C(F)(F)F)cnc2n1C [compound 2] |  |  | Mortality of insects [2]: 100% |
| CCS(=O)(=O)c1ccc(-n2cnc(C(F)(F)F)n2)nc1-c1nc2cc(C(F)(F)F)cnc2n1C [compound 5] | 100 | 100 |  |
| CCS(=O)(=O)c1ccc(-n2cnc(SC)n2)nc1-c1nc2cc(C(F)(F)F)cnc2n1C [compound 7] | 100 | 100 |  |
| CCS(=O)(=O)c1ccc(-n2cnc(S(C)(=O)=O)n2)nc1-c1nc2cc(C(F)(F)F)cnc2n1C [compound 8] | 100 |  |  |
| CCS(=O)(=O)c1ccc(-n2cnc(C(=O)OC)n2)nc1-c1nc2cc(C(F)(F)F)cnc2n1C [compound 11] | 100 |  |  |
| CCSc1ccc(-n2cncn2)nc1-c1nc2cc(C(F)(F)F)cnc2n1C [compound 13] |  | 100 |  |
| CC[S+]([O-])c1ccc(-n2cnc(C(F)(F)F)n2)nc1-c1nc2cc(C(F)(F)F)cnc2n1C (stereo not drawn) [compound 21] | 100 |  |  |
| CC[S+]([O-])c1ccc(-n2cnc(SC)n2)nc1-c1nc2cc(C(F)(F)F)cnc2n1C (stereo not drawn) [compound 22] | 100 |  |  |
